“Also recorded” adds a separate entry of the source.
Columns and labels:
[1] = system: U251-MG tumors; assay: In situ end-labeling (TUNEL) of DNA in subcutaneous xenografts; type: in vivo, nude mice; settings: 5 nmol every day for 7 days
Text: FIG. 14. In situ end-labeling of DNA in subcutaneous xenografts of nude mice. After treatment with oligonucleotides (5 nmol, every day) for 7 days, the mice were sacrificed and the subcutaneous mass was removed, frozen, and sectioned on a cryostat. The tumor specimens from U251-MG cells were counterstained by hematoxylin and eosin following the TUNEL technique. Arrows show representatives of tumor cells positive for DNA fragmentation (×400). (above) spA4-anti-(M6)hTR, 7 Day; (below) spA4-anti-hTR, 7 Day.
To further determine whether treatment with oligonucleotides induced apoptosis, tumor cells and tissues were stained by the terminal deoxynucleotidyl transferase (TdT)-mediated DUTP nick end labeling (TUNEL) technique using Apo-Tag kit (peroxidase conjugated) (Oncor Inc., Gaithersburg, Md.). The staining of apoptotic cells was done on U373MG cells. Oligonucleotides with lipofectamine was added to the cells every day. The final concentrations were 0.5 micromolar and 8 microgram/ml for oligo and lipofectamine, respectively. […]
U251-MG and U373 MG tumor cells (1.0×10^6 cells in 0.1 ml serum free DMEM and 0.1 ml Matrigel) were injected subcutaneously into the right flank of 8-12 week-old female Balb/c nude mice (5 mice for each treatment group). Tumor growth was monitored using calipers every 2- or 3-days. Tumor volume (V) was calculated as (L×W^2)/2, where L=length (mm) and W=width (mm). […]

[2] = system: U251-MG cells; assay: TUNEL assay on cultured cells treated with spA4-anti-hTR; type: cell-based, human; settings: treated cells fixed and stained
[3] = system: RCC tumors; assay: Subcutaneous tumors in nude mice, intratumoral oligonucleotide plus lipofectamine; type: in vivo
Description: (§1) RCC and A375 tumor cells (500,000 cells per tumor) were injected subcutaneously. The treatments, begun 8 days after tumor cell inoculation, was with 40 microliter of 25 micromolar SpA4-anti-hTR plus 1 microliter (2 microgram) lipofectamine injected in each tumor every day.

[4] = system: A375 tumors; assay: as above; type: in vivo
Description: as §1

[5] = system: U373 human malignant glioma cells; assay: TUNEL assay for apoptosis, oligonucleotide plus lipofectamine; type: cell-based
Description: To further determine whether treatment with oligonucleotides induced apoptosis, tumor cells and tissues were stained by the terminal deoxynucleotidyl transferase (TdT)-mediated DUTP nick end labeling (TUNEL) technique using Apo-Tag kit (peroxidase conjugated) (Oncor Inc., Gaithersburg, Md.). The staining of apoptotic cells was done on U373MG cells. Oligonucleotides with lipofectamine was added to the cells every day. The final concentrations were 0.5 micromolar and 8 microgram/ml for oligo and lipofectamine, respectively. Pictures were taken after 3 days of treatment.

[6] = system: normal human lung cell line, WI 38; assay: Viable cell count, daily oligonucleotide plus lipofectamine; type: cell-based; settings: WI 38, 0.5 micromolar daily plus lipofectamine, 8 days
Description: (§2) Cells (10,000/well) were seeded on 96 well tissue culture dishes, and treated every 24 hours. A 10× concentrated mixture of oligonucleotides plus lipofectamine in water was prepared containing 5 micromolar oligonucleotide and 80 microgram per ml lipofectamine™ (Gibco/BRL) and incubated for 10 min at room temperature. Media was removed from the cells, 10 microliters of the oligonucleotide/lipofectamine mixture was added directly to the cultured cells followed by 90 microliters of media plus serum. The media was changed with oligonucleotide/lipofectamine treatments every 24 h. Cells were passaged when the control cells reached confluency, and viable cells were counted after staining with Trypan Blue (GibcoBRL). The numbers of cells treated only with lipofectamine were used as the control to calculate percentages of cell survival or viability.
(§3) For the experiments described below, lipofectamine was used to enhance the uptake of the oligonucleotides into cells (Williams et al., 1996, Leukemia 10:[…]). […] Using this protocol for 8 days, SpA4-anti-hTR reduced cell viability by 9% and 35% in the normal human lung cell line, WI 38, and in normal diploid human fibroblasts (MRC5), respectively, while causing a 90% reduction in the viability of U373 cells.

[7] = system: normal diploid human fibroblasts (MRC5); assay: as above; type: cell-based; settings: MRC5, 0.5 micromolar daily plus lipofectamine, 8 days
Description: as §2, §3

[8] = system: U373-MG cells; assay: Combination with cisplatin in vitro, MTT assay; type: cell-based, human; settings: treatment with spA4-anti-hTR
Description: FIG. 17. Effect of combining 2-5A-anti-hTR with cisplatin on malignant glioma U373-MG cells in vitro and in vivo. FIG. 17A Tumor cells were treated with 2-5A-anti-hTR (0.5 μM, every 24 hr) mixed with Lipofectamine (1.0 μl/25 μl DMEM) or cisplatin for three days, and their viability was determined by MTT assay. Values represent the means±S.D. FIG. 17B Tumors from U373-MG cells (1.0×10^6 cells in 0.05 ml serum free DMEM and 0.05 ml matrigel) were established subcutaneously in nude mice. After four or five weeks when the tumors were approximately 60-100 mm^3, spA4-anti-hTR (5 nmol/20 μl sterile distilled water) were administrated directly into the tumors daily for 7 days. Cisplatin (1.0 or 5.0 mg/kg/mice) was administered intraperitoneally on Days 1, 3 and 5. Five Mice were used in each treatment group. Tumor volume was then determined using calipers, and the mean sizes ±S.D. were calculated.
To determine if the anti-malignant glioma cell activity of chemotherapeutic agent, cisplatin, could be enhance with SpA4-anti-hTR, a combination therapy protocol was devised (FIG. 17). The point at which 50% cell death was achieved was using 1 microgram per ml of cisplatin plus 0.5 micromolar of SpA4-anti-hTR; whereas in the absence of SpA4-anti-hTR, >10 micrograms per ml of cisplatin were required to achieve 50% cell death (FIG. 17). […] Furthermore, we determined the effect of combining 2-5A-anti-hTR with cisplatin on U373-MG cells in vitro and in vivo. […] The IC50 of cisplatin was reduced from 10.0 to 1.0 μg/ml by combination of spA4-anti-hTR.

Substance: Sp5′A2′p(5′A2p)3-[(Bu)p]2-5′GCG CGG GGA GCA AAA GCA C3′-3′T5′ (antisense GCGCGGGGAGCAAAAGCAC; 5'-thiophosphate 2-5A tetramer, butanediol linkers, 3'-3'T cap, chemistry not fully specified) [spA4-anti-hTR, 2-5A tetramer linked by butanediol linkers to 19-mer antisense against human telomerase RNA nucleotides 76 to 94]
- apoptotic cells observed in tumors (TUNEL) [1]: many apoptotic cells
- apoptotic cell death by TUNEL (in words) [2]: increased number of darkly staining nuclei
- tumor cell growth (in words) ([3]; RCC subcutaneous, oligonucleotide plus lipofectamine from day 8): Suppression
- increase in tumor size ([3]; RCC, 40 microliter of 25 micromolar plus lipofectamine intratumoral daily, seven day period): 14%
- increase in tumor size ([4]; A375, 40 microliter of 25 micromolar plus lipofectamine intratumoral daily, seven days): 17%
- tumor cell growth (in words) ([4]; A375 subcutaneous, oligonucleotide plus lipofectamine from day 8): Suppression
- apoptosis by TUNEL (in words) ([5]; 0.5 micromolar daily plus lipofectamine for 3 days): apoptosis was clearly visible
- apoptosis by TUNEL assay for DNA breakage (in words) ([5]; over time of treatment): time-dependent increase in apoptotic cells; also recorded: caused apoptosis
- reduction in cell viability [6]: 9%
- reduction in cell viability [7]: 35%
- susceptibility of U373-MG cells to cisplatin (in words) [8]: increased the susceptibility

— US6468983B2, “RNase L activators and antisense oligonucleotides effective to treat telomerase-expressing malignancies” (The Cleveland Clinic Foundation, priority 1997, dated 2002)
